From US11014911B2, “CDK2 inhibitors” (Pfizer Inc., priority 2019, dated 2021)
pKi: −log10 of the molar value.

Target: CDK2/Cyclin E1 full length (Homo sapiens (Human), UniProt P24941)
Assay: CDK2/Cyclin E1 full length mobility shift assay
Format: biochemical

## CCCNC(=O)O[C@H]1CC[C@@H](c2cc(NC(=O)Cc3c[nH]cn3)n[nH]2)C1 [Example 165, (1S,3R)-3-{3-[(1H-imidazol-4-ylacetyl)amino]-1H-pyrazol-5-yl}cyclopentyl propylcarbamate]
  pKi: 8.64

## Cc1cnc(CC(=O)Nc2cc([C@H]3CC[C@@H](OC(=O)NCCC(F)(F)F)C3)[nH]n2)cn1 [Example 220, (1R,3S)-3-(3-{[(5-methylpyrazin-2-yl)acetyl]amino}-1H-pyrazol-5-yl)cyclopentyl (3,3,3-trifluoropropyl)carbamate]
  pKi: 8.49

## COc1ccc(S(C)(=O)=O)c(CC(=O)Nc2cc([C@H]3CC[C@@H](OC(=O)NC(C)C(F)(F)F)C3)[nH]n2)c1 (single isomer, unassigned) [Example 292]
  pKi: 9.07

## Cc1nc(CC(=O)Nc2cc([C@H]3CC[C@@H](OC(=O)NC(C)(C)C)C3)[nH]n2)cs1 [Example 304, (1R,3S)-3-(3-{[(2-methyl-1,3-thiazol-4-yl)acetyl]amino}-1H-pyrazol-5-yl)cyclopentyl tert-butylcarbamate]
  pKi: 8.85

## CCCNC(=O)O[C@@H]1CC[C@H](c2cc(NC(=O)Cc3ccccc3S(=O)(=O)C(C)C)n[nH]2)C1 [Example 211, (1R,3S)-3-[3-({[2-(propan-2-ylsulfonyl)phenyl]acetyl}amino)-1H-pyrazol-5-yl]cyclopentyl propylcarbamate]
  pKi: 8.31

## CC[C@H](C)NC(=O)O[C@@H]1CC[C@H](c2cc(NC(=O)Cc3cncc(C(F)(F)F)n3)n[nH]2)C1 [Example 362, (1R,3S)-3-[3-({[6-(trifluoromethyl)pyrazin-2-yl]acetyl}amino)-1H-pyrazol-5-yl]cyclopentyl (2S)-butan-2-ylcarbamate]
  pKi: 9.08

## O=C(Cc1cc(F)cc(F)c1)Nc1cc([C@H]2CC[C@@H](OC(=O)NC3CCOCC3)C2)[nH]n1 [Example 505, (1R,3S)-3-(3-{[(3,5-difluorophenyl)acetyl]amino}-1H-pyrazol-5-yl)cyclopentyl tetrahydro-2H-pyran-4-ylcarbamate]
  pKi: 8.80

## CC(C)NC(=O)O[C@@H]1CC[C@H](c2cc(NC(=O)Cc3cccc4scnc34)n[nH]2)C1 [Example 283, (1R,3S)-3-{3-[(1,3-benzothiazol-4-ylacetyl)amino]-1H-pyrazol-5-yl}cyclopentyl propan-2-ylcarbamate]
  pKi: 8.34

## Cc1cccnc1CC(=O)Nc1cc([C@H]2CC[C@@H](OC(=O)NC3(C)CC3)C2)[nH]n1 [Example 427, (1R,3S)-3-(3-{[(3-methylpyridin-2-yl)acetyl]amino}-1H-pyrazol-5-yl)cyclopentyl (1-methylcyclopropyl)carbamate]
  pKi: 8.75

## O=C(Cc1nccs1)Nc1cc([C@H]2CC[C@@H](OC(=O)NCCC(F)(F)F)C2)[nH]n1 [Example 219, (1R,3S)-3-{3-[(1,3-thiazol-2-ylacetyl)amino]-1H-pyrazol-5-yl}cyclopentyl (3,3,3-trifluoropropyl)carbamate]
  pKi: 8.42

## COc1cnc(CC(=O)Nc2cc([C@H]3CC[C@@H](OC(=O)N4[C@@H](C)C[C@@H]4C)C3)[nH]n2)cn1 [Example 610, (1R,3S)-3-(3-{[(5-methoxypyrazin-2-yl)acetyl]amino}-1H-pyrazol-5-yl)cyclopentyl (2S,4S)-2,4-dimethylazetidine-1-carboxylate]
  pKi: 8.98

## COc1cc(CC(=O)Nc2cc([C@H]3CC[C@@H](OC(=O)NC(C)C)C3)[nH]n2)c(OC)cn1 [Example 285, (1R,3S)-3-(3-{[(2,5-dimethoxypyridin-4-yl)acetyl]amino}-1H-pyrazol-5-yl)cyclopentyl propan-2-ylcarbamate]
  pKi: 8.40

## COc1cc(C(=O)Nc2cc([C@H]3CC[C@@H](OC(=O)N[C@H](C)CC(F)(F)F)C3)[nH]n2)n(C)n1 [Example 402, (1R,3S)-3-(3-{[(3-methoxy-1-methyl-1H-pyrazol-5-yl)carbonyl]amino}-1H-pyrazol-5-yl)cyclopentyl [(2R)-4,4,4-trifluorobutan-2-yl]carbamate]
  pKi: 8.81

## C[C@H]1CCN1C(=O)O[C@@H]1CC[C@H](c2cc(NC(=O)Cc3cnn(C)c3)n[nH]2)C1 [Example 588, (1R,3S)-3-(3-{[(1-methyl-1H-pyrazol-4-yl)acetyl]amino}-1H-pyrazol-5-yl)cyclopentyl (2S)-2-methylazetidine-1-carboxylate]
  pKi: 9.12

## CCC1CCN1C(=O)O[C@@H]1CC[C@H](c2cc(NC(=O)Cc3ncc(C)o3)n[nH]2)C1 (single isomer, unassigned) [Example 599]
  pKi: 8.86

## CCNC(=O)O[C@@H]1CC[C@H](c2cc(NC(=O)Cc3cccc4ncsc34)n[nH]2)C1 [Example 235, (1R,3S)-3-{3-[(1,3-benzothiazol-7-ylacetyl)amino]-1H-pyrazol-5-yl}cyclopentyl ethylcarbamate]
  pKi: 8.63

## CCCNC(=O)O[C@@H]1CC[C@H](c2cc(NC(=O)Cc3ccccc3S(=O)(=O)NC)n[nH]2)C1 [Example 209, (1R,3S)-3-[3-({[2-(methylsulfamoyl)-phenyl]acetyl}amino)-1H-pyrazol-5-yl]cyclopentyl propylcarbamate]
  pKi: 8.92

## CC1(NC(=O)O[C@@H]2CC[C@H](c3cc(NC(=O)Cc4ccccn4)n[nH]3)C2)CC1 [Example 420, (1R,3S)-3-{3-[(pyridin-2-ylacetyl)amino]-1H-pyrazol-5-yl}cyclopentyl (1-methylcyclopropyl)carbamate]
  pKi: 9.27

## CCC(CO)CNC(=O)O[C@@H]1CC[C@H](c2cc(NC(=O)Cc3ccc(OC)cc3)n[nH]2)C1 (single isomer, unassigned) [Example 530]
  pKi: 8.69

## COc1cnc(CC(=O)Nc2cc([C@H]3CC[C@@H](OC(=O)NC4(CC(F)(F)F)CC4)C3)[nH]n2)cn1 [Example 456, (1R,3S)-3-(3-{[(5-methoxypyrazin-2-yl)acetyl]amino}-1H-pyrazol-5-yl)cyclopentyl [1-2,2,2-trifluoroethyl)cyclopropyl] carbamate]
  pKi: 9.42

## C[C@H](F)[C@H](C)NC(=O)O[C@@H]1CC[C@H](c2cc(NC(=O)Cc3cnn(C)c3)n[nH]2)C1 (single isomer, unassigned) [Example 381, (1R,3S)-3-(3-{[(1-methyl-1H-pyrazol-4-yl)acetyl]amino}-1H-pyrazol-5-yl)cyclopentyl [(2S*,3S*)-3-fluorobutan-2-yl]carbamate]
  pKi: 8.51

## CC[C@H](C)NC(=O)O[C@@H]1CC[C@H](c2cc(NC(=O)Cc3cn(CC(F)(F)F)nn3)n[nH]2)C1 [Example 366, (1R,3S)-3-[3-({[1-(2,2,2-trifluoroethyl)-1H-1,2,3-triazol-4-yl]acetyl}amino)-1H-pyrazol-5-yl]cyclopentyl (2S)-butan-2-ylcarbamate]
  pKi: 8.75

## Cc1nnc(CC(=O)Nc2cc([C@H]3CC[C@@H](OC(=O)NC4(C)CCC4)C3)[nH]n2)o1 [Example 459, (1R,3S)-3-(3-{[(5-methyl-1,3,4-oxadiazol-2-yl)acetyl]amino}-1H-pyrazol-5-yl)cyclopentyl (1-methylcyclobutyl)carbamate]
  pKi: 9.49

## COc1cc(CC(=O)Nc2cc([C@@H]3CC[C@H](OC(=O)NC[C@@H]4CCCO4)C3)[nH]n2)ccn1 [Example 497, (1S,3R)-3-(3-{[(2-methoxypyridin-4-yl)acetyl]amino}-1H-pyrazol-5-yl)cyclopentyl [(2S)-tetrahydrofuran-2-ylmethyl]carbamate]
  pKi: 8.36
